Laboratory results taken from US8183201B2 (priority 2006, dated 2012).
Read-outs that look alike come from different tables or passages of the source.

How the values were obtained:
[1] = molecular target: T1, integrin αIIbβ3 (Homo sapiens, UniProt P05106+P08514); assay type: cell-based
T1 construct: host or cells: CHO (CHO-αIIbβ3)

[2] = molecular target: T2, integrin α5β1 (Homo sapiens, UniProt P05556+P08648); assay type: cell-based
T2 construct: Human erythroleukemia K562 cells were purchased from ATCC; host or cells: K562

[3] = system: ovariectomized (OVX) mice; set-up: species or system ICR mice; details: mouse, in vivo
[4] = system: osteoarthritis rats; set-up: species or system Sprague-Dawley rats; details: rat, in vivo
[5] = system: osteoarthritic rats; details: rat, in vivo
[6] = system: osteoarthritic mice; details: mouse, in vivo
[7] = system: Human prostate adenocarcinoma PC-3 cells; set-up: species or system SCID mice; details: mouse, in vivo
[8] = molecular target: T3, Calcitonin (Homo sapiens, UniProt P30988); assay type: binding
T3 construct: MDS Pharma services, Taipei, Taiwan (contract assay)
T3 sequence (P30988 25-474): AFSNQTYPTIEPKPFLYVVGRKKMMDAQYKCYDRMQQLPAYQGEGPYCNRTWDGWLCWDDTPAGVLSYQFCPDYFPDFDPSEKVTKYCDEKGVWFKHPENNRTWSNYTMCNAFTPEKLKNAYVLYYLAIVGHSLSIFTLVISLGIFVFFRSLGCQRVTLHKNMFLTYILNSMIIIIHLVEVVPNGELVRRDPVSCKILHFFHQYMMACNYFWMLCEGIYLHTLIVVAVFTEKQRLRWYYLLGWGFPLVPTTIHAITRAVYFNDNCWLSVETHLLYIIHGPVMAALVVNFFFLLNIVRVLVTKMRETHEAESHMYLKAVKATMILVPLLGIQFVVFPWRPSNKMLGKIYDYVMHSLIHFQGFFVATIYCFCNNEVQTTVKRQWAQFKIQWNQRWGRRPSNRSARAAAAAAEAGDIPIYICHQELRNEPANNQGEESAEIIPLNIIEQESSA

[9] = molecular target: T4, Endothelin ETB (Homo sapiens, UniProt P24530); assay type: binding
T4 construct: MDS Pharma services, Taipei, Taiwan (contract assay)
T4 sequence (P24530 27-442): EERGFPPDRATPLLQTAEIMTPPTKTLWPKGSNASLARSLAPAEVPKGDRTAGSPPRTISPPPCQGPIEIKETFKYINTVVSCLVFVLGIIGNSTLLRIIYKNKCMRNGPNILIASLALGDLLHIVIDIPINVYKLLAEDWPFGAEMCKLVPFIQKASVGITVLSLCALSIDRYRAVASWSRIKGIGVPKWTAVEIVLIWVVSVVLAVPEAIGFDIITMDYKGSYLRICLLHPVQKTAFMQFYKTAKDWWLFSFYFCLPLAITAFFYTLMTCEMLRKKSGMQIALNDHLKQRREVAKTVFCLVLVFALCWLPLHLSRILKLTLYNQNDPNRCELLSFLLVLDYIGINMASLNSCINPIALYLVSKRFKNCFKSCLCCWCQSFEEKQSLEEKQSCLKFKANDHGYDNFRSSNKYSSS

[10] = molecular target: T5, Leptin (Homo sapiens, UniProt P48357); assay type: binding
T5 construct: MDS Pharma services, Taipei, Taiwan (contract assay)
T5 sequence (P48357 22-1165): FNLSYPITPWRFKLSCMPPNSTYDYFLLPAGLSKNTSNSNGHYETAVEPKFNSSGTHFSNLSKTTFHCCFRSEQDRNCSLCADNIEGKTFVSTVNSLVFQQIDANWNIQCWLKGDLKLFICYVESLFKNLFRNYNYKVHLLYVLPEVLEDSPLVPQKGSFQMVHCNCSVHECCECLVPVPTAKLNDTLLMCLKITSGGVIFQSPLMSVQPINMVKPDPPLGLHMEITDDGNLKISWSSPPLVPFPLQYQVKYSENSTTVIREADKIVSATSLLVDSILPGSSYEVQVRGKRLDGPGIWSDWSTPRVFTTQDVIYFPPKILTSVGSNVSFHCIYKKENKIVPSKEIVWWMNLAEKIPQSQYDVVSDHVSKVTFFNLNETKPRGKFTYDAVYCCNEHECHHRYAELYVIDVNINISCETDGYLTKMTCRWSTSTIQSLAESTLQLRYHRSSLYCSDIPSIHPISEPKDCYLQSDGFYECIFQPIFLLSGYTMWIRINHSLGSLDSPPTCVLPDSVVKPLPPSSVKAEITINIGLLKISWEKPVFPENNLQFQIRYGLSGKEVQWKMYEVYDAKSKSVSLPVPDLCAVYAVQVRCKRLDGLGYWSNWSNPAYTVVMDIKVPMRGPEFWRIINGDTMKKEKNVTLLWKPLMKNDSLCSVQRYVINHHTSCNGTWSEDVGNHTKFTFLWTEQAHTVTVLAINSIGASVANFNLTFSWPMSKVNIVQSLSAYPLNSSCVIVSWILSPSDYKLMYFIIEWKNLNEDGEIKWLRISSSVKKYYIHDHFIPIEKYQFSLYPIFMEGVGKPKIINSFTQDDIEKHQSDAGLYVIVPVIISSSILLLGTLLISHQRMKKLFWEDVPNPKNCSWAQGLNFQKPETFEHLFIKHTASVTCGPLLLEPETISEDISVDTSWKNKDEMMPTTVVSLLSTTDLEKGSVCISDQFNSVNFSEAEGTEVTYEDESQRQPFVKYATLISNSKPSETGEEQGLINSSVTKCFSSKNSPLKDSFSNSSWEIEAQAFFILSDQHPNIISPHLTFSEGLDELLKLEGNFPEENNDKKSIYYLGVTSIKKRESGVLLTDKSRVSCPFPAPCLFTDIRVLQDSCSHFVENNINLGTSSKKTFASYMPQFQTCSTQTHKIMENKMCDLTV

[11] = system: Sodium Channel (Site 2); assay type: binding
[12] = system: TNF; assay type: binding
[13] = mouse, in vivo
[14] = system: human breast cancer MDA-MB-231 cells; details: mouse, in vivo
[15] = mouse, in vivo, iv, 30 mg/kg

T2 sequence (P08648 42-894 limits assumed): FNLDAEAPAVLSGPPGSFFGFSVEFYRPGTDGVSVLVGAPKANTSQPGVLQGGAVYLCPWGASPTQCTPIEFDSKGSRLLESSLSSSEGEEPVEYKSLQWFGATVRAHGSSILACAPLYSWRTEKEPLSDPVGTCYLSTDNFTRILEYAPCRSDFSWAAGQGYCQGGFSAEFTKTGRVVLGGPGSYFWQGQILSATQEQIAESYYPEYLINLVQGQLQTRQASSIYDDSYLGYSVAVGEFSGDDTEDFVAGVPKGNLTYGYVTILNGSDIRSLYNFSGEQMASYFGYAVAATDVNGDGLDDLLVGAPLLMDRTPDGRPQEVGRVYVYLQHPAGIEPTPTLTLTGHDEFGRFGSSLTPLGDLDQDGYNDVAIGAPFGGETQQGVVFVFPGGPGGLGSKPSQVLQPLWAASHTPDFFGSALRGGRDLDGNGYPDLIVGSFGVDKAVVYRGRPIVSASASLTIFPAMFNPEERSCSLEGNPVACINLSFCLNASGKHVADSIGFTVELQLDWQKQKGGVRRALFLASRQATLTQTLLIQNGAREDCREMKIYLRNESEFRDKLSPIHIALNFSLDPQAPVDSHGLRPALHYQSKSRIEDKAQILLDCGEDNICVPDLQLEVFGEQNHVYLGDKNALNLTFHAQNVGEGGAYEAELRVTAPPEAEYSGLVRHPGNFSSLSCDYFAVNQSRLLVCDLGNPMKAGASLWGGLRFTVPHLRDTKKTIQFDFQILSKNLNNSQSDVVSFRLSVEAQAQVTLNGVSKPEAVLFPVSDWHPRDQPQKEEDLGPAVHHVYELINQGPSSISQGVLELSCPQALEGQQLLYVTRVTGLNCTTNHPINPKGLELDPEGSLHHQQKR
T2 sequence (P08648 895-1049 partner limits assumed): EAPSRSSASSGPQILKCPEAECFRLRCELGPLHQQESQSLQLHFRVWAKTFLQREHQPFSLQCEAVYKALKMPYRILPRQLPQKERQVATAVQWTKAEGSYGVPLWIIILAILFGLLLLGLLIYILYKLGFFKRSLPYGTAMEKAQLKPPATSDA
T2 sequence (P05556 21-798): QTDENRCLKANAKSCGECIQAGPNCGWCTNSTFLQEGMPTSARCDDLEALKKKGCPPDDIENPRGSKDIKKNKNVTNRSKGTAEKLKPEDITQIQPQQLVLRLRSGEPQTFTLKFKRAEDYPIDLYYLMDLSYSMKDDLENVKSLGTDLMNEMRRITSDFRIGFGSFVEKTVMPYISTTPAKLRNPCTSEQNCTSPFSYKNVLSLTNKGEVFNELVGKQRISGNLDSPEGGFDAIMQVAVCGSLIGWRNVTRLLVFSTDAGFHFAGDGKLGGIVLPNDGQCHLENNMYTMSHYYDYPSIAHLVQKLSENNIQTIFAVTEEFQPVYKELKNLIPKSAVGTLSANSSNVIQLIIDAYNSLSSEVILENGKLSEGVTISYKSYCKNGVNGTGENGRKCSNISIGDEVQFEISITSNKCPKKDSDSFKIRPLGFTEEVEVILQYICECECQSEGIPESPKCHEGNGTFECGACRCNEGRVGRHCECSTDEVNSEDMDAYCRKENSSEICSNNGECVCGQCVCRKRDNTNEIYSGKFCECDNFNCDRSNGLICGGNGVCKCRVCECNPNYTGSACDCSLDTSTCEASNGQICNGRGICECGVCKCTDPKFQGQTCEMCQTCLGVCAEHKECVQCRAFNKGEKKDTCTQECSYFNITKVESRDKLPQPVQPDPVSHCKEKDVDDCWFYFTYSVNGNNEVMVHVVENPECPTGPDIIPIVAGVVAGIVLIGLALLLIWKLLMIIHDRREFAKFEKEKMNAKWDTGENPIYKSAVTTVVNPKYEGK

For “RD: rhodostomin variant having a RGD motif variant ^48PRLDMP^53, SEQ ID NO: 36”, which “increase of IC50 in inhibition of integrin αIIbβ3 as compared to Rho” value [1] is on record?
The value was “more than 104 fold”.

What about the “increase of IC50 in inhibition of integrin α5β1 as compared to Rho” value [2] of the same substance?
The value was over 10 fold.

And the BMC [3]?
The BMC was 0.582 ± 0.009 g.

And the BMD [3]?
The BMD was 0.085 ± 0.002 g/cm^2.

And the “C-terminal telopeptide of COL(1)α1 chain” value [3]?
The value was 533 ± 27.4 ng/mL.

And the BMC ([3]; po, 1.5 mg/kg)?
The BMC was 0.627 ± 0.008 g.

And the BMD ([3]; po, 1.5 mg/kg)?
Its BMD is 0.091 ± 0.001 g/cm^2.

What about the “C-terminal telopeptide of COL(1)α1 chain” value ([3]; po, 1.5 mg/kg) of the same substance?
Its value is 391 ± 8.3 ng/mL.

What about the “chondrocyte layer destruction in knee joint” value [4] of the same substance?
The value was “inhibited the chondrocyte layer destruction”.

And the “osteoarthritis-induced elevation of serum cytokines (c-reactive protein, IL-1β, IL-6)” value [5]?
Its value is “markedly inhibited the osteoarthritis-induced elevation of cytokines”.

What about the “osteoarthritis-induced elevation of serum cytokines (c-reactive protein, IL-1, IL-6)” value [6] of the same substance?
Its value is “markedly inhibited the osteoarthritis-induced elevation of cytokines”.

And the “PC-3 tumor-induced osteolysis (radiographs)” value [7]?
Its value is “inhibited osteolysis”.

What about the “inhibition in tumor cell-induced swelling in hind legs” value [7] of the same substance?
Its value is 43.8±4.1%.

And the “tumor-induced decrease in body weight” value [7]?
Its value is “prevented the loss of body weight”.

What about the “tumor-induced increase in C-terminal telopeptides of type-I collagen” value [7] of the same substance?
The value was “inhibited a tumor-induced increase in C-terminal telopeptides”.

And the “tumor-induced increase in the serum calcium concentration (hypercalcemia)” value ([7]; 1.5 mg/kg)?
Its value is “inhibited a tumor-induced increase in the serum calcium concentration”.

And the “tumor growth in legs (in words)” value ([7]; sc, 1.5 mg/kg)?
The value was “inhibited tumor growth”.

What about the “Inhibition, Calcitonin” value [8] of the same substance?
The value was 4%.

What about the “Inhibition, Endothelin ETB” value [9] of the same substance?
The value was 10%.

And the “Inhibition, Leptin” value [10]?
The value was 1%.

What about the “Inhibition, Sodium Channel (Site 2)” value [11] of the same substance?
The value was 2%.

And the “Inhibition, TNF” value [12]?
The value was 4%.

What about the “effect on tail bleeding (clotting) time” value [13] of the same substance?
The value was “only slightly affected the clotting time”.

And the “MDA-MB-231-induced tumor growth in bone” value [14]?
The value was “inhibited MDA-MB-231-induced increase in tumor growth in bone”.

And the “blood counts of RBC, WBC and platelet” value [14]?
Its value is “did not affect the blood counts of RBC, WBC and platelet”.

And the tumor-induced hypercalcemia [14]?
Its tumor-induced hypercalcemia is “prevented”.

And the “tumor-induced increase in osteoclast activity” value [14]?
Its value is “prevented the tumor-induced increase in osteoclast activity”.

What about the survival of mice [15] of the same substance?
The survival of mice was “did not affect the survival of mice”.
